Test results taken from patent US20240150423A1, “GLP-1 ANALOGUE-MODIFIED DIMERS WITH DIFFERENT CONFIGURATIONS, PREPARATION METHOD THEREOF, AND APPLICATION THEREOF IN TREATMENT OF TYPE II DIABETES” (Nanjing Finepeptide Biopharmaceutical Co.,Ltd, priority 2019, published 2024).
Non-standard residues stand in square brackets, D forms with d. No end group written: not given here. βAib = beta-Aib residue; Aib = CC(C)(N)C(=O)O; βAla = NCCC(=O)O

test system: Normal Kunming (KM) mice; experiment: multiple OGTT (mOGTT): hypoglycemic duration after a single administration; type: in vivo; details: monomeric peptides, single injection at the same dose (1.126 nmol), subcutaneous
Outline: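 Normal Kunming mice given a single dose, then oral glucose challenges; tail-blood glucose read by meter at 0, 10, 20, 40, 60 and 120 min. Duration scored as hypoglycemic period until group mean glucose exceeded the NaCl control twice.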

| Substance | Hypoglycemic [days] |
| --- | --- |
| His-βAib-Glu-Gly-Thr-Phe-Thr-Ser-Asp-Val-Ser-Cys-Tyr-Leu-Glu-Gly-Gln-Ala-Ala-Lys[N-ϵ-(N-α-Palmitoyl-L-γ-glutamyl)]-Glu-Phe-Ile-Ala-Trp-Leu-Val-Lys[N-ϵ-(N-α-Palmitoyl-L-γ-glutamyl)]-Gly-Arg-Gly-NH2 (HXEGTFTSDVSCYLEGQAAXEFIAWLVXGRG; not fully specified; beta-Aib; two palmitoyl-gamma-Glu on Lys; C-terminal amide; Sequence is synthesized; (2)..(2) Xaa is bAib; (20)..(20) Xaa is 26Lys[N-e-(N-a-palmitoyl-L-g-glutamyl)]; (28)..(28) Xaa is 26Lys[N-e-(N-a-palmitoyl-L-g-glutamyl)]; (31)..(31) N-terminal) [G5 series 43] | 3 |
| His-Ala-Glu-Gly-Thr-Phe-Thr-Cys-Asp-Val-Ser-Ser-Tyr-Leu-Glu-Gly-Gln-Ala-Ala-Lys[N-α-(N-α-oleoyl-L-γ-glutamyl)]-Glu-Phe-Ile-Ala-Trp-Leu-Val-Arg-Gly-Arg-Gly-NH2 (HAEGTFTCDVSSYLEGQAAXEFIAWLVRGRG; oleoyl-gamma-Glu on Lys; C-terminal amide; Sequence is synthesized; (20)..(20) Xaa is 26Lys[N-e-(N-a-oleoyl-L-g-glutamyl)]; (31)..(31) N-terminal) [G8 series 59] | 3 |
| His-Ala-Glu-Gly-Thr-Phe-Thr-Ser-Asp-Val-Ser-Cys-Tyr-Leu-Glu-Gly-Gln-Ala-Ala-Lys[N-ϵ-(N-α-Palmitoyl-L-γ-glutamyl)]-Glu-Phe-Ile-Ala-Trp-Leu-Val-Lys[N-ϵ-(N-α-Palmitoyl-L-γ-glutamyl)]-Gly-Arg-Gly-OH (HAEGTFTSDVSCYLEGQAAXEFIAWLVXGRG; two palmitoyl-gamma-Glu on Lys; C-terminal acid; Sequence is synthesized; (20)..(20) Xaa is 26Lys[N-e-(N-a-palmitoyl-L-g-glutamyl)]; (28)..(28) Xaa is 26Lys[N-e-(N-a-palmitoyl-L-g-glutamyl)]; (31)..(31) C-terminal) [G5 series 40] | 1 |
| His-Ala-Glu-Gly-Thr-Phe-ThrCys-Asp-Val-Ser-Ser-Tyr-Leu-Glu-Gly-Gln-Ala-Ala-Lys[N-ϵ-(N-α-oleoyl-L-γ-glutamyl)]-Glu-Phe-Ile-Ala-Trp-Leu-Val-Arg-Gly-Arg-Gly-OH (HAEGTFTCDVSSYLEGQAAXEFIAWLVRGRG; oleoyl-gamma-Glu on Lys; C-terminal acid; Sequence is synthesized; (20)..(20) Xaa is 26Lys[N-e-(N-a-oleoyl-L-g-glutamyl)]; (31)..(31) C-terminal) [G8 series 58] | 1 |
| His-βAla-Glu-Gly-Thr-Phe-Thr-Ser-Asp-Val-Ser-Cys-Tyr-Leu-Glu-Gly-Gln-Ala-Ala-Lys[N-ϵ-(N-α-oleoyl)]-Glu-Phe-Ile-Ala-Trp-Leu-Val-Arg-Gly-Arg-Gly-NH2 (HXEGTFTSDVSCYLEGQAAXEFIAWLVRGRG; beta-amino acid; oleoyl on Lys side chain; C-terminal amide; Sequence is synthesized; (2)..(2) Xaa is bAla; (20)..(20) Xaa is 26Lys[N-e-(N-a-oleoyl-L-g-glutamyl)]; (31)..(31) N-terminal) [G4 series 39] | 5 |
| His-aAib-Glu-Gly-Thr-Phe-Thr-Cys-Asp-Val-Ser-Ser-Tyr-Leu-Glu-Gly-Gln-Ala-Ala-Lys[N-ϵ-(N-α-Palmitoyl-γ-glutamyl)]-Glu-Phe-Ile-Ala-Trp-Leu-Val-Arg-Gly-Arg-Gly-NH2 (HXEGTFTCDVSSYLEGQAAXEFIAWLVRGRG; Aib; palmitoyl-gamma-Glu on Lys; C-terminal amide; Sequence is synthesized; (2)..(2) Xaa is aAib; (20)..(20) Xaa is 26Lys[N-e-(N-a-palmitoyl-L-g-glutamyl)]; (31)..(31) N-terminal) [G8 series 61] | 4 |
| His-aAib-Glu-Gly-Thr-Phe-Thr-Cys-Asp-Val-Ser-Ser-Tyr-Leu-Glu-Gly-Gln-Ala-Ala-Lys-Glu-Phe-Ile-Ala-Trp-Leu-Val-Lys-aAib-Arg-NH2 (H[Aib]EGTFTCDVSSYLEGQAAKEFIAWLVK[Aib]R-NH2; N-terminus assumed; SMILES CC[C@H](C)[C@H](NC(=O)[C@H](Cc1ccccc1)NC(=O)[C@H](CCC(=O)O)NC(=O)[C@H](CCCCN)NC(=O)[C@H](C)NC(=O)[C@H](C)NC(=O)[C@H](CCC(N)=O)NC(=O)CNC(=O)[C@H](CCC(=O)O)NC(=O)[C@H](CC(C)C)NC(=O)[C@H](Cc1ccc(O)cc1)NC(=O)[C@H](CO)NC(=O)[C@H](CO)NC(=O)[C@@H](NC(=O)[C@H](CC(=O)O)NC(=O)[C@H](CS)NC(=O)[C@@H](NC(=O)[C@H](Cc1ccccc1)NC(=O)[C@@H](NC(=O)CNC(=O)[C@H](CCC(=O)O)NC(=O)C(C)(C)NC(=O)[C@@H](N)Cc1c[nH]cn1)[C@@H](C)O)[C@@H](C)O)C(C)C)C(=O)N[C@@H](C)C(=O)N[C@@H](Cc1c[nH]c2ccccc12)C(=O)N[C@@H](CC(C)C)C(=O)N[C@H](C(=O)N[C@@H](CCCCN)C(=O)NC(C)(C)C(=O)N[C@@H](CCCNC(=N)N)C(N)=O)C(C)C) [G8 series 65] | 2 |
| His-βAib-Glu-Gly-Thr-Phe-Thr-Cys-Asp-Val-Ser-Ser-Tyr-Leu-Glu-Gly-Gln-Ala-Ala-Lys-Glu-Phe-Ile-Ala-Trp-Leu-Val-Arg-βAib-Arg-NH2 (H[βAib]EGTFTCDVSSYLEGQAAKEFIAWLVR[βAib]R-NH2; also: disulfide-linked homodimer via Cys) [G8 series 67] | 2 |
| His-aAib-Glu-Gly-Thr-Phe-Thr-Ser-Asp-Val-Ser-Cys-Tyr-Leu-Glu-Gly-Gln-Ala-Ala-Lys[N-ϵ-(N-α-oleoyl-L-γ-glutamyl)]-Glu-Phe-Ile-Ala-Trp-Leu-Val-Arg-Gly-Arg-Gly-OH (HXEGTFTSDVSCYLEGQAAXEFIAWLVRGRG; Aib; oleoyl-gamma-Glu on Lys; C-terminal acid; Sequence is synthesized; (2)..(2) Xaa is aAib; (20)..(20) Xaa is LyO; (31)..(31) C-terminal) [G6 series 46] | 5 |
| His-Ala-Glu-Gly-Thr-Phe-Thr-Ser-Asp-Val-Ser-Cys-Tyr-Leu-Glu-Gly-Gln-Ala-Ala-Lys[N-ϵ-(N-α-Palmitoyl-L-γ-glutamyl)]-Glu-Phe-Ile-Ala-Trp-Leu-Val-Arg-Gly-Arg-Gly-NH2 (HAEGTFTSDVSCYLEGQAAXEFIAWLVRGRG; palmitoyl-γ-glutamyl on Lys; C-terminal amide; Sequence is synthesized; (20)..(20) Xaa is 26Lys[N-e-(N-a-palmitoyl-L-g-glutamyl)]; (31)..(31) N-terminal) [G3 series 22] | 6 |
| His-aAib-Glu-Gly-Thr-Phe-Thr-Ser-Asp-Val-Cys-Ser-Tyr-Leu-Glu-Gly-Gln-Ala-Ala-Lys[N-ϵ-(N-α-oleoyl-L-γ-glutamyl)]-Glu-Phe-Ile-Ala-Trp-Leu-Val-Arg-Gly-Arg-Gly-NH2 (HXEGTFTSDVCSYLEGQAAXEFIAWLVRGRG; αAib; oleoyl-γ-glutamyl on Lys; C-terminal amide; Sequence is synthesized; (2)..(2) Xaa is aAib; (20)..(20) Xaa is 26Lys[N-e-(N-a-oleoyl-L-g-glutamyl)]; (31)..(31) N-terminal) [G2 series 13] | 7 |
| His-aAib-Glu-Gly-Thr-Phe-Thr-Ser-Asp-Val-Cys-Ser-Tyr-Leu-Glu-Gly-Gln-Ala-Ala-Lys[N-ϵ-(N-α-oleoyl)]-Glu-Phe-Ile-Ala-Trp-Leu-Val-Arg-Gly-Arg-Gly-NH2 (HXEGTFTSDVCSYLEGQAAXEFIAWLVRGRG; αAib; oleoyl on Lys; C-terminal amide; Sequence is synthesized; (2)..(2) Xaa is aAib; (20)..(20) Xaa is 26Lys[N-e-(N-a-oleoyl-L-g-glutamyl)]; (31)..(31) N-terminal) [G4 series 29] | 7 |
| His-Ala-Glu-Gly-Thr-Phe-Thr-Ser-Asp-Val-Cys-Ser-Tyr-Leu-Glu-Gly-Gln-Ala-Ala-Lys[N-ϵ-(N-α-oleoyl-L-γ-glutamyl)]-Glu-Phe-Ile-Ala-Trp-Leu-Val-Arg-Gly-Arg-Gly-OH (HAEGTFTSDVCSYLEGQAAXEFIAWLVRGRG; oleoyl-γ-glutamyl on Lys; C-terminal acid; Sequence is synthesized; (20)..(20) Xaa is 26Lys[N-e-(N-a-oleoyl-L-g-glutamyl)]; (31)..(1) C-terminal) [G2 series 9] | 3 |
| His-βAla-Glu-Gly-Thr-Phe-Thr-Ser-Asp-Val-Ser-Cys-Tyr-Leu-Glu-Gly-Gln-Ala-Ala-Lys-Glu-Phe-Ile-Ala-Trp-Leu-Val-Arg-βAla-Arg-NH2 (H[βAla]EGTFTSDVSCYLEGQAAKEFIAWLVR[βAla]R-NH2; also: disulfide-linked homodimer via Cys12) [G7 series 55] | 2 |
| His-βAib-Glu-Gly-Thr-Phe-Thr-Ser-Asp-Val-Cys-Ser-Tyr-Leu-Glu-Gly-Gln-Ala-Ala-Lys[N-ϵ-(N-α-oleoyl)]-Glu-Phe-Ile-Ala-Trp-Leu-Val-Arg-Gly-Arg-Gly-NH2 (HXEGTFTSDVCSYLEGQAAXEFIAWLVRGRG; βAib; oleoyl on Lys; C-terminal amide; Sequence is synthesized; (2)..(2) Xaa is bAib; (20)..(20) Xaa is 26Lys[N-e-(N-a-oleoyl-L-g-glutamyl)]; (31)..(31) N-terminal) [G4 series 30] | 6 |

same assay, conditions: single injection at the same dose (1.126 nmol), subcutaneous

| Substance | Hypoglycemic duration [days] |
| --- | --- |
| 2G4 series 25: disulfide-linked homodimer of monomer SEQ ID NO: 25 (HAEGTFTSDVCSYLEGQAAXEFIAWLVRGRG; not fully specified; disulfide-linked homodimer; Sequence is synthesized; (20)..(20) Xaa is 26Lys[N-e-(N-a-palmitoyl-L-g-glutamyl)]; (31)..(31) N-terminal) | 14 |
